System: SARS-CoV-2
Test: microbe, parasite or virus in culture
Details: Severe acute respiratory syndrome coronavirus 2, Vero C1008, 48 h

| Structure (SMILES) | IC50 [µM] | IC50 (read-out: pIC50 (converted)) [µM] |
| --- | --- | --- |
| CC1(C)O[C@@H]2C[C@H]3[C@@H]4C[C@H](F)C5=CC(=O)C=C[C@]5(C)[C@H]4[C@@H](O)C[C@]3(C)[C@]2(C(=O)CO)O1 [FLUNISOLIDE] | > 20 | > 20 |
| CC(C)CC(N)=O [ISOVALERAMIDE] | > 20 | > 20 |
| CN[C@@H]1[C@@H](O)[C@@H](O[C@@H]2[C@@H](O)[C@H](O[C@H]3O[C@H]([C@@H](C)NC)CC[C@H]3N)[C@@H](N)C[C@H]2N)OC[C@]1(C)O [GENTAMICIN C1] | > 20 | > 20 |
| COc1cc2nc(N3CCN(C(=O)C4COc5ccccc5O4)CC3)nc(N)c2cc1OC (stereo not drawn) [DOXAZOSIN] | > 20 | > 20 |
| CC1(C)CC=C(c2nc(C3CC(C)(C)OC(C)(C)C3)ccc2NC(=O)c2nc(C#N)c[nH]2)CC1 [EDICOTINIB] | > 20 | > 20 |
| CC(=O)O[C@@H]1C[C@H]2C(C)(C)C(=O)C=C[C@]2(C)[C@H]2CC[C@@]3(C)[C@H](c4ccoc4)OC(=O)[C@H]4O[C@]43[C@@]21C [GEDUNIN] | > 20 | > 20 |
| COc1ccc(-c2nc(N3CCOCC3)c3sc(CN(C)c4ncc(C(=O)NO)cn4)cc3n2)cn1 [FIMEPINOSTAT] | > 20 | > 20 |
| O=C(NC[C@H](O)CN1CCc2ccccc2C1)c1cc(NC2COC2)ncn1 | > 20 | > 20 |
| Cc1cnc(Nc2ccc(OCCN3CCCC3)cc2)nc1Nc1cccc(S(=O)(=O)NC(C)(C)C)c1 [FEDRATINIB] | > 20 | > 20 |
| Cc1[nH]c2ccccc2c1CCNCc1ccc(/C=C/C(=O)NO)cc1 [PANOBINOSTAT] | > 20 | > 20 |
| CC(C)=CCC/C(C)=C/CC/C(C)=C/CN1CCN(Cc2ccc3c(c2)OCO3)CC1 [PIFARNINE] | > 20 | > 20 |
| CC12CCC(=O)C=C1CCC1C3CCC(O)(C(=O)CO)C3(C)CC(O)C12F (stereo not drawn) | > 20 | > 20 |
| Nc1ccn([C@@H]2O[C@H](CO)[C@@H](O)C2(F)F)c(=O)n1 [GEMCITABINE] | > 20 | > 20 |
| CC1O[C@@H](OC2CC[C@@]3(C)C(CCC4C3CC(O)[C@]3(C)[C@@H](C5=CC(=O)OC5)CCC43O)C2)CC(O)[C@@H]1O[C@H]1CC(O)[C@H](O[C@H]2CC(O)[C@H](O[C@@H]3OC(CO)[C@@H](O)C(O)C3O)C(C)O2)C(C)O1 (stereo partly drawn) | > 20 | > 20 |
| Cc1ccc(-c2nc3ccc(C)cn3c2CC(=O)N(C)C)cc1 [ZOLPIDEM] | > 20 | > 20 |
| C=CC[N@@+]12CC[C@]34c5ccccc5N5/C=C6\C7N(/C=C(/C53)[C@@H](C[C@@H]41)/C(=C/CO)C2)c1ccccc1[C@@]71CC[N@@+]2(CC=C)C/C(=C\CO)[C@@H]6C[C@@H]12 (stereo partly drawn) | > 20 | > 20 |
| COc1cc(O)c(C(C)=O)c(OC)c1 [XANTHOXYLIN] | > 20 | > 20 |
| O=C(Nc1c[nH]nc1-c1nc2ccc(CN3CCOCC3)cc2[nH]1)NC1CC1 [AT-9283] | > 20 | > 20 |
| CC12CCC3C4CCC(=O)C=C4CCC3C1CCC2=O (stereo not drawn) | > 20 | > 20 |
| N[C@@H](Cc1cc(I)c(Oc2cc(I)c(O)c(I)c2)c(I)c1)C(=O)O [LEVOTHYROXINE] | > 20 | > 20 |

| Structure (SMILES) | IC50 [µM] | IC50 (read-out: pIC50 (converted)) [µM] |
| --- | --- | --- |
| O=C(c1ccc(F)cc1)C1CCN(CCn2c(=O)[nH]c3ccccc3c2=O)CC1 [KETANSERIN] | > 20 | > 20 |
| O=c1ccn([C@@H]2O[C@H](CO)[C@@H](O)[C@@H]2O)c(=O)[nH]1 [ARAURIDINE] | > 20 | > 20 |
| CC(C(=O)Nc1ccc(Cl)cc1)[C@H]1CC[C@@H](c2ccnc3ccc(F)cc32)CC1 (stereo partly drawn) | > 20 | > 20 |
| CN[C@@H](C)[C@@H](O)c1ccccc1 [PSEUDOEPHEDRINE] | > 20 | > 20 |
| O=c1[nH]sc2cc(Cl)ccc12 [TICLATONE] | > 20 | > 20 |
| CC(C)[C@H](N)C(=O)OCC(CO)OCn1cnc2c(=O)[nH]c(N)nc21 (stereo partly drawn) [VALGANCICLOVIR] | > 20 | > 20 |
| C[C@@]12CCCCC[C@@H](Cc3ccc(O)cc31)[C@@H]2N [DEZOCINE] | > 20 | > 20 |
| CC(C)N(CCC(C(N)=O)(c1ccccc1)c1ccccn1)C(C)C (stereo not drawn) [DISOPYRAMIDE] | > 20 | > 20 |
| CC(C)NCC(O)COc1cccc2[nH]ccc12 (stereo not drawn) [PINDOLOL] | > 20 | > 20 |
| COCC1CN=C(c2ccccc2Cl)c2cc(Br)ccc2N1C (stereo not drawn) [METACLAZEPAM] | > 20 | > 20 |
| CN(C)CCCOC1(Cc2ccccc2)CCCCCC1 [BENCYCLANE] | > 20 | > 20 |
| OC[C@H]1O[C@H](O[C@H]2[C@H](O)[C@@H](O)[C@H](O)O[C@@H]2CO)[C@H](O)[C@@H](O)[C@@H]1O [MALTOSE] | > 20 | > 20 |
| CC(C)NCC(O)c1ccc(O)c(O)c1 (stereo not drawn) [ISOPROTERENOL] | > 20 | > 20 |
| Cc1cc(Nc2cc(N3CCN(C)CC3)nc(Sc3ccc(NC(=O)C4CC4)cc3)n2)n[nH]1 [TOZASERTIB] | > 20 | > 20 |
| COc1ccc2[nH]cc(CCN(C)C)c2c1 [MEBUFOTENIN] | > 20 | > 20 |
| CCNC(C)Cc1cccc(C(F)(F)F)c1 (stereo not drawn) [FENFLURAMINE] | > 20 | > 20 |
| NC(=O)O[C@@H](Cn1ncnn1)c1ccccc1Cl [CENOBAMATE] | > 20 | > 20 |
| O=C1NCCN1CCN1CCN([C@@H]2C[C@@H](c3ccc(F)cc3)c3ccccc32)CC1 [IRINDALONE] | > 20 | > 20 |
| O=C1[C@H](CC[C@H](O)c2ccc(F)cc2)[C@@H](c2ccc(O)cc2)N1c1ccc(F)cc1 [EZETIMIBE] | > 20 | > 20 |
| O=c1cc(-c2ccccc2)oc2ccccc12 [FLAVONE] | > 20 | > 20 |

| Structure (SMILES) | IC50 [µM] | IC50 (read-out: pIC50 (converted)) [µM] |
| --- | --- | --- |
| Nc1ccccc1S(N)(=O)=O | > 20 | > 20 |
| CN(C)[C@@H]1C(O)=C(C(N)=O)C(=O)[C@@]2(O)C(O)=C3C(=O)c4c(O)cccc4[C@@](C)(O)[C@H]3C[C@@H]12 [TETRACYCLINE] | > 20 | > 20 |
| CCOC[C@]12Cc3cnn(-c4ccc(F)cc4)c3C=C1CCN(S(=O)(=O)c1ccc(C(F)(F)F)cc1)C2 [CORT 108297] | > 20 | > 20 |
| Clc1ccc(CCCOCCCN2CCCCC2)cc1 [PITOLISANT] | > 20 | > 20 |
| CC(C)(O/N=C(\C(=O)N[C@@H]1C(=O)N2C(C(=O)[O-])=C(C[n+]3ccccc3)CS[C@H]12)c1csc(N)n1)C(=O)O [CEFTAZIDIME] | > 20 | > 20 |
| CC(C)OC(=O)[C@H](C)NP(=S)(OC[C@H]1O[C@@H](n2ccc(=O)[nH]c2=O)[C@](C)(O)[C@@H]1O)Oc1ccccc1 (stereo partly drawn) [VX-135] | > 20 | > 20 |
| CC(C)(C)NC(=O)N[C@H](C(=O)N1C[C@H]2[C@@H]([C@H]1C(=O)NC(CC1CCC1)C(=O)C(N)=O)C2(C)C)C(C)(C)C (stereo partly drawn) [BOCEPREVIR] | > 20 | > 20 |
| c1ccc2c(c1)OCC(C1=NCCN1)O2 (stereo not drawn) [IDAZOXAN] | > 20 | > 20 |
| COc1ccccc1CNCCCCCCNCCCCCCCCNCCCCCCNCc1ccccc1OC [METHOCTRAMINE] | > 20 | > 20 |
| C[C@H](N)[C@H](O)c1cccc(O)c1 [METARAMINOL] | > 20 | > 20 |
| Cc1occc(=O)c1O [MALTOL] | > 20 | > 20 |
| CN1C(C(=O)Nc2ccccn2)=C(O)c2ccccc2S1(=O)=O [PIROXICAM] | > 20 | > 20 |
| CC(=O)OC1CCC2(C)C3CC=C4C5CC(C)(C)CCC5(C(=O)O)CC[C@@]4(C)C3(C)CC[C@H]2C1(C)C (stereo partly drawn) | > 20 | > 20 |
| CC[C@H]1C(C)=NN=C(c2ccc(OC)c(OC)c2)c2cc(OC)c(OC)cc21 [DEXTOFISOPAM] | > 20 | > 20 |
| C1CCc2nnnn2CC1 [PENTYLENETETRAZOL] | > 20 | > 20 |
| CN1CCN2c3ccccc3Cc3ccccc3C2C1 (stereo not drawn) [MIANSERIN] | > 20 | > 20 |
| CC1(C)CC(O)CC(C)(C)N1[O] [TEMPOL] | > 20 | > 20 |
| Clc1ccc(C(Cn2ccnc2)OCc2csc3c(Cl)cccc23)c(Cl)c1 (stereo not drawn) [SERTACONAZOLE] | > 20 | > 20 |
